This is an account of results in patent publication EP3807270B1, “NOVEL HETEROARYL HETEROCYCLYL COMPOUNDS FOR THE TREATMENT OF AUTOIMMUNE DISEASE” (F. Hoffmann-La Roche AG, priority 2018, dated 2019).

pIC50: −log10 of the molar value.

One series addresses T1, CYP2D6 (Homo sapiens, UniProt P10635).
T1 construct: tissue BD-Gentest 452117; host or cells: human liver microsomes
In words: CYP inhibition assay in human liver microsome. The series is classed as in vitro ADME. The conditions noted are these: human liver microsomes, probe dextromethorphan, 10µM test compound, dextromethorphan substrate, <0: not or weak inhibitor, read-out: CYP 2D6 inhibition %@10µM. On the procedure: This is a high throughput screening assay used for assessment of reversible inhibition of CYP2D6 activity of test compounds in human liver microsome (HLM) in early discovery stage. Table 4. Chemicals and materials used in the CYP inhibition assay
10 mM DMSO stock solutions of test compounds were diluted in DMSO to generate 2 mM intermediate stock solution. 250 nL of intermediate stock solution were transferred in duplicate into 3 separate 384 well microtitre plates (assay-ready plates). A mixture of HLM and each substrate was made up. 45 µL of HLM substrate mix was then transferred to each well of an assay ready plate and mixed. The negative (solvent) and positive control (standard inhibitor for CYP 2D6) were included in each assay ready plate. The assay ready plate was warmed to 37 °C in an incubator over 10 minutes. 5 µL pre-warmed NADPH regenerating system was added to each incubation well to start the reaction. Final incubation volume was 50 µL. The assay plate then was placed back in the 37 °C incubator. After 10-minute incubation, incubates were quenched by addition of 50 µL 100% acetonitrile containing internal standards (20 ng/mL D3-Dextrorphan). The supernatants were collected for RapidFire/MS/MS analysis.
RapidFire online solid phase extraction/sample injection system (Agilent) coupled with API4000 triple quadrupole mass spectrometer (AB Sciex) were used for sample analysis. The mobile phase composed of acetonitrile and water supplemented with 0.1% formic acid. A C4 solid phase extraction cartridge is used for sample separation. MS detection is achieved in positive ion MRM mode.
Peak areas for substrate, metabolite and internal standard are determined using the RapidFire integrator software (version 3.6.12009.12296). Peak area ratios (PAR) of metabolite and internal standard (stable-labelled metabolite) are then calculated. The measurement window for each experiment is then defined: • PAR (0% activity)= average PAR for all incubations containing concentrated inhibitor; • Par (100% activity)= average PAR for all incubations containing no inhibitor (DMSO controls); • % Activity (test inhibitor) • =[PAR(test inhibitor)-PAR(0% activity)]/[PAR(100% activity)-PAR(0% activity)]; • % Inhibition (test inhibitor)=100-% Activity (test inhibitor).
In general terms: Liver microsomes are vesicles of endoplasmic reticulum, rich in cytochrome P450 enzymes.

For a further series, the target named is T2, hTLR9 (Homo sapiens, UniProt Q9NR96).
T2 sequence (Q9NR96 26-1032): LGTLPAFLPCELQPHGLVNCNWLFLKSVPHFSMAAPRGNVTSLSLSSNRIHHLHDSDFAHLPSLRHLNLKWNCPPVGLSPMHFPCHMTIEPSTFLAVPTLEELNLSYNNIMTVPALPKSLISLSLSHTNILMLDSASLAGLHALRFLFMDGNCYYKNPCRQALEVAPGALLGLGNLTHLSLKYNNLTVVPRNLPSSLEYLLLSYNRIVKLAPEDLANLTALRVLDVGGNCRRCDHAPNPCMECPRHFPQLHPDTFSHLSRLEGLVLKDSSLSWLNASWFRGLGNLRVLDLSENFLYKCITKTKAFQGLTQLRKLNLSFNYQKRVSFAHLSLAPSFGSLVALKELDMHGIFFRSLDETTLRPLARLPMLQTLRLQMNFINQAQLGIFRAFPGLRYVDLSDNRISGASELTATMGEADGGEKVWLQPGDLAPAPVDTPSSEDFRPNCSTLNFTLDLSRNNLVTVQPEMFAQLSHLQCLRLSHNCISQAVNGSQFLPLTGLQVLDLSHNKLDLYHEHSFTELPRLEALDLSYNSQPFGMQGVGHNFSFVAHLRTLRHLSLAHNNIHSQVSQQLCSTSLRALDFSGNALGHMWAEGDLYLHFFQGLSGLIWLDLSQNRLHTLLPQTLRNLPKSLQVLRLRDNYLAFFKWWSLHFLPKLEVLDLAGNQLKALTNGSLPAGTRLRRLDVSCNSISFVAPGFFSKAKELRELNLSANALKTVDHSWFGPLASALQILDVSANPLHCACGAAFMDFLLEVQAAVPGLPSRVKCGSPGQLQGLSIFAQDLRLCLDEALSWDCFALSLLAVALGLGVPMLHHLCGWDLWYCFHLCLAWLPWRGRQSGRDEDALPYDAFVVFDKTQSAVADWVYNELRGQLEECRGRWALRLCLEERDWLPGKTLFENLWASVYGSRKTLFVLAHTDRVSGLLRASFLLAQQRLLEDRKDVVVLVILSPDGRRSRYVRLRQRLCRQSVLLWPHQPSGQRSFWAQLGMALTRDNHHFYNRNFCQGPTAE
Description: HEK293-Blue-hTLR-9 cells assay (SEAP reporter, ODN2006 stimulation). The arrangement: host or cells: HEK293 (HEK-Blue). Conditions: HEK293-Blue-hTLR9 cells, ODN2006, 20 hrs; read-out: HEK/hTLR9 IC50. It is filed as cell-based. The source says: A stable HEK293-Blue-hTLR-9 cell line was purchased from InvivoGen (Cat.#: hkb-htlr9, San Diego, California, USA). These cells were originally designed for studying the stimulation of human TLR9 by monitoring the activation of NF-κB. A SEAP (secreted embryonic alkaline phosphatase) reporter gene was placed under the control of the IFN-β minimal promoter fused to five NF-κB and AP-1-binding sites. The SEAP was induced by activating NF-κB and AP-1 via stimulating HEK-Blue hTLR9 cells with TLR9 ligands. Therefore, the reporter expression was declined by TLR9 antagonist under the stimulation of a ligand, such as ODN2006 (Cat.#: tlrl-2006-1, Invivogen, San Diego, California, USA), for incubation of 20 hrs. The cell culture supernatant SEAP reporter activity was determined using QUANTI-Blue™ kit (Cat.#: rep-qb 1, Invivogen, San Diego, California, USA) at a wavelength of 640 nm, a detection medium that turns purple or blue in the presence of alkaline phosphatase.
HEK293-Blue-hTLR9 cells were incubated at a density of 250,000-450,000 cells/mL in a volume of 170 µL in a 96-well plate in Dulbecco's Modified Eagle's medium (DMEM) containing 4.5 g/L glucose, 50 U/mL penicillin, […], […], 2 mM L-glutamine, 10% (v/v) heat-inactivated fetal bovine serum with addition of 20 µL test compound in a serial dilution in the presence of final DMSO at 1% and 10 µL of 20uM ODN2006 in above DMEM, perform incubation under 37 °C in a CO2 incubator for 20 hrs. Then 20 µL of the supernatant from each well was incubated with 180 µL Quanti-blue substrate solution at 37 °C for 2 hrs and the absorbance was read at 620-655 nm using a spectrophotometer. The signaling pathway that TLR9 activation leads to downstream NF-κB activation has been widely accepted, and therefore similar reporter assay was modified for evaluating TLR9 antagonist.

T1 sequence (P10635 whole entry): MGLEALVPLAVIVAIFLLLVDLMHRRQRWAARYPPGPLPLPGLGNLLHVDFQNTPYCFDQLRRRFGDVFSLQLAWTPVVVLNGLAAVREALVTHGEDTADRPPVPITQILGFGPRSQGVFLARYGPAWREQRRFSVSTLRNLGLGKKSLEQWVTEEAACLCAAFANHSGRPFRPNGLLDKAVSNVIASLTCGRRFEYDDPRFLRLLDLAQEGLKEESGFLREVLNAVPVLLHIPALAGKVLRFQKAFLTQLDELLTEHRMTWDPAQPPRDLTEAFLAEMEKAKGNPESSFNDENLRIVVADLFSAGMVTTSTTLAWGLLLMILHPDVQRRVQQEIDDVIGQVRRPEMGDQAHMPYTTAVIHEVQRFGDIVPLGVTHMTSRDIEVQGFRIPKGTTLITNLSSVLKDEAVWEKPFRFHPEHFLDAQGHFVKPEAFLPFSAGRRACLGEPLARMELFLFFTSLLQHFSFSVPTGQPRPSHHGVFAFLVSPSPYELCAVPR

A word on the inhibition: it is the change of the read-out against control, counted positive when it falls. In the case of `C[C@@H]1CN(c2ccc(C#N)c3ncccc23)C[C@H](CN2C[C@H]3CN(c4ccc5c(n4)CCNC5)CC[C@H]32)O1` (single isomer, unassigned) [Example 55], on CYP2D6, the inhibition at 10 min, 10 µM was 10.5%. Besides, the pIC50 at hTLR9 is > 7.49.
Turning to `C[C@@H]1CN(c2ccc(C#N)c3ncccc23)C[C@H](CN2CCN(c3cnc4c(c3)CN[C@@H]4C)CC2)O1` (single isomer, unassigned) [Example 68], the inhibition at 10 min, 10 µM at CYP2D6 is 6%. The pIC50 at hTLR9 was 7.08.
`C[C@@H]1CN(c2ccc(C#N)c3ncccc23)C[C@H](CN2CCN(c3cc4c(cn3)[C@@H](C)NCC4)CC2)O1` (single isomer, unassigned) [Example 73]: the inhibition at 10 min, 10 µM on CYP2D6 turned out to be 6%. The pIC50 at hTLR9 was 7.09.
`C[C@@H]1CN(c2ccc(C#N)c3ncccc23)C[C@H](CN2CCN(c3cc4c(cn3)CCN[C@@H]4C)CC2)O1` (single isomer, unassigned) [Example 74]: the inhibition at 10 min, 10 µM at CYP2D6 came out at 6%. In addition, the pIC50 at hTLR9 was 7.05.
Turning to `C[C@@H]1CN(c2ccc(C#N)c3ncccc23)C[C@H](CN2CCN(c3cc4c(cn3)C[C@H](C)NC4)CC2)O1` (single isomer, unassigned) [Example 76], the inhibition at 10 min, 10 µM at CYP2D6 was 6%. Also, the pIC50 at hTLR9 is 7.01.
With `C[C@@H]1CN(c2ccc(C#N)c3nccnc23)C[C@H](CN2CCN(c3ccc4c(n3)CN[C@H]4C)CC2)O1` (single isomer, unassigned) [Example 78], at CYP2D6, the inhibition at 10 min, 10 µM came out at 0.5%. Besides, the pIC50 on hTLR9 is 6.88.
As for `C[C@@H]1CN(c2ccc(C#N)c3nccnc23)C[C@H](CN2CCN(c3ccc4c(n3)CN[C@@H]4C)CC2)O1` (single isomer, unassigned) [Example 79], the inhibition at 10 min, 10 µM at CYP2D6 stood at 5.5%. Moreover, the pIC50 on hTLR9 was 6.97.
Regarding `C[C@@H]1CN(c2ccc(C#N)c3nccnc23)C[C@H](CN2CCN(c3cc4c(cn3)C[C@H](C)NC4)CC2)O1` (single isomer, unassigned) [Example 81], the inhibition at 10 min, 10 µM at CYP2D6 was 3.5%. The pIC50 at hTLR9 was 7.02.
As to `C[C@@H]1Cc2cc(N3CCN(C[C@H]4CN(c5ccc(C#N)c6nccnc56)C[C@@H](C)O4)CC3)ncc2CN1` (single isomer, unassigned) [Example 83], the inhibition at 10 min, 10 µM at CYP2D6 was -8%. Further, at hTLR9, the pIC50 was 6.91.
`C[C@@H]1CN(c2ccc(C#N)c3nccnc23)C[C@H](CN2CCN(c3cc4c(cn3)CN[C@@H](C)C4)CC2)O1` (single isomer, unassigned) [Example 84]: the inhibition at 10 min, 10 µM at CYP2D6 was -1.5%. Also, the pIC50 on hTLR9 was 7.05.
For `C[C@@H]1CN(c2ccc(C#N)c3ncccc23)C[C@H](CN2CC3[C@H](C2)OCCN3c2ccc3c(n2)CCNC3)O1` (stereo in doubt) [Example 53, cis-5-[(2R,6S)-2-methyl-6-[[4-(5,6,7,8-tetrahydro-1,6-naphthyridin-2-yl)-2,3,4a,5,7,7a-hexahydropyrrolo[3,4-b][1,4]oxazin-6-yl]methyl]morpholin-4-yl]quinoline-8-carbonitrile], the inhibition at 10 min, 10 µM on CYP2D6 is 24%. Moreover, the pIC50 on hTLR9 is 7.16.
The like results for `C[C@@H]1CN(c2ccc(C#N)c3ncccc23)C[C@H](CN2CCN(c3cccc4c3CNC4)CC2)O1` [Example 2, 5-[(2S,6R)-2-[(4-isoindolin-4-ylpiperazin-1-yl)methyl]-6-methyl-morpholin-4-yl] quinoline-8-carbonitrile] were, in that order, -5% and 7.24.
Take `C[C@@H]1CN(c2ccc(C#N)c3ncccc23)C[C@H](CN2CCN(c3ccc4c(c3)CCNC4)CC2)O1` [Example 5, 5-[(2R,6S)-2-methyl-6-[[4-(1,2,3,4-tetrahydroisoquinolin-6-yl)piperazin-1-yl]methyl]morpholin-4-yl]quinoline-8-carbonitrile]: the inhibition at 10 min, 10 µM at CYP2D6 was 0.5%. In addition, at hTLR9, the pIC50 was 7.19.
As to `Cc1nc2c(nc1N1CCN(C[C@H]3CN(c4ccc(C#N)c5ncccc45)C[C@@H](C)O3)CC1)CCNC2` [Example 60, 5-[(2R,6S)-2-methyl-6-[[4-(3-methyl-5,6,7,8-tetrahydropyrido[3,4-b]pyrazin-2-yl)piperazin-1-yl]methyl]morpholin-4-yl]quinoline-8-carbonitrile], on hTLR9, the pIC50 was 6.81.
As for `C[C@@H]1CN(c2ccc(C#N)c3ncccc23)C[C@H](CN2CCN(c3ncnc4c3CNCC4)CC2)O1` [Example 61, 5-[(2R,6S)-2-methyl-6-[[4-(5,6,7,8-tetrahydropyrido[4,3-d]pyrimidin-4-yl)piperazin-1-yl]methyl]morpholin-4-yl]quinoline-8-carbonitrile], the pIC50 at hTLR9 is 6.64.
With `C[C@@H]1CN(c2ccc(C#N)c3ncccc23)C[C@H](CN2CCN(c3nccc4c3CCNC4)CC2)O1` [Example 62, 5-[(2R,6S)-2-methyl-6-[[4-(5,6,7,8-tetrahydro-2,6-naphthyridin-1-yl)piperazin-1-yl]methyl]morpholin-4-yl]quinoline-8-carbonitrile], the pIC50 at hTLR9 is 6.82.
Same read-out and setting: the value for `COc1ccc(N2CCN(C[C@H]3CN(c4ccc(C#N)c5ncccc45)C[C@@H](C)O3)CC2)cc1` [Example R1, 5-[(2S,6R)-2-[[4-(4-methoxyphenyl)piperazin-1-yl]methyl]-6-methyl-morpholin-4-yl]quinoline-8-carbonitrile, reference compound] was 5.18.
With `C[C@@H]1CN(c2ccc(C#N)c3ncccc23)C[C@H](CN2CCN(c3ccc(Cl)cc3)CC2)O1` [Example R2, 5-[(2S,6R)-2-[[4-(4-chlorophenyl)piperazin-1-yl]methyl]-6-methyl-morpholin-4-yl]quinoline-8-carbonitrile, reference compound], the pIC50 at hTLR9 is 5.15.
